According to patent US5410024A, “Human cancer inhibitory pentapeptide amides” (Arizona Board of Regents acting on behalf of Arizona State …, priority 1993, dated 1995):

Assays:
Format in all cases: cell-based
human tumor cell lines = test: Inhibition of human tumor cell lines (general statements); conditions: for GI50: for at least six cell lines
Description: Current research in the control of cancer in the United States is coordinated by the National Cancer Institute (NCI). To determine whether a substance has anti-cancer properties, the NCI has established a systematic protocol. This protocol, which involves the testing of a substance against a standard cell line panel containing 60 human tumor cell lines, has been verified and is accepted in scientific circles. The protocol, and the established statistical means for analyzing the results obtained by the standardized testing are fully described in the literature. See: Boyd, Dr. Michael R., Principles & Practice of Oncology, PPO Updates, Volume 3, Number 10, October 1989, for an in depth description of the testing protocol; and Paull, K. D., "Display and Analysis of Patterns of Differential Activity of Drugs Against Human Tumor Cell Lines; Development of Mean Graph and COMPARE Algorithm", Journal of the National Cancer Institute Reports, Vol. 81, No. 14, Page 1088, Jul. 14, 1989 for a description of the methods of statistical analysis. Both of these references are incorporated herein by this reference thereto.

KM20L2 = test: NCI human tumor cell line screen, Colon KM20L2; conditions: for GI-50 / LC-50 / TGI: Colon KM20L2; for GI50, minipanel cell line E: minipanel comparison
Description: (§1) Current research in the control of cancer in the United States is coordinated by the National Cancer Institute (NCI). To determine whether a substance has anti-cancer properties, the NCI has established a systematic protocol. […] The protocol, and the established statistical means for analyzing the results obtained by the standardized testing are fully described in the literature. […] Both of these references are incorporated herein by this reference thereto.

SK-MEL-5 = test: NCI human tumor cell line screen, Melanoma SK-MEL-5; conditions: for GI-50 / LC-50 / TGI: Melanoma SK-MEL-5
Description: as §1

OVCAR-3 = test: NCI human tumor cell line screen, Ovarian OVCAR-3; conditions: for GI-50 / LC-50 / TGI: Ovarian OVCAR-3
Description: as §1

NCI-H460 = test: NCI human tumor cell line screen, Lung-NSC NCI-H460; conditions: for GI-50 / LC-50 / TGI: Lung-NSC NCI-H460
Description: as §1

SF-295 = test: NCI human tumor cell line screen, CNS SF-295; conditions: for GI-50 / LC-50 / TGI: CNS SF-295
Description: as §1

A498 = test: NCI human tumor cell line screen, Renal A498; conditions: for GI-50 / LC-50 / TGI: Renal A498
Description: as §1

## (R)-Doe-isoDolastatin 10 [reference compound]
Human tumor cell lines
  human cancer cell line activity as compared to Dolastatin 10: did not show any significant difference

## L-Dolavalyl-L-Valyl-N-Methyl-(S,S,R)-Dolaisoleucyl-(S,R,R)-Dolaproyl-L-Phenylalanineamide-N-(1-adamantane) [Compound 9j]
KM20L2
  GI-50: 0.000027 µg/mL
  LC-50: > 0.0001 µg/mL
  TGI: 0.072 ng/mL
SK-MEL-5
  GI-50: 0.000022 µg/mL
  LC-50: > 0.0001 µg/mL
  TGI: > 0.1 ng/mL
OVCAR-3
  GI-50: 0.000019 µg/mL
  LC-50: > 0.0001 µg/mL
  TGI: 0.055 ng/mL
NCI-H460
  GI-50: 0.000014 µg/mL
  LC-50: > 0.0001 µg/mL
  TGI: 0.057 ng/mL
SF-295
  GI-50: 0.000030 µg/mL
  LC-50: > 0.0001 µg/mL
  TGI: > 0.1 ng/mL
A498
  GI-50: 0.000034 µg/mL
  LC-50: > 0.0001 µg/mL
  TGI: > 0.1 ng/mL

## L-Dolavalyl-L-Valyl-N-Methyl-(S,S,R)-Dolaisoleucyl-(S,R,R)-Dolaproyl-L-Phenylalanineamide-N-(2-benzothiazole) [Compound 9e]
KM20L2
  TGI: 0.0007 ng/mL
  GI50, minipanel cell line E: 0.00026 ng/mL
SK-MEL-5
  GI-50: 0.000000030 µg/mL
  TGI: > 0.001 ng/mL
OVCAR-3
  GI-50: 0.000000033 µg/mL
  TGI: 0.00019 ng/mL
NCI-H460
  GI-50: 0.000000039 µg/mL
  TGI: 0.00044 ng/mL
SF-295
  GI-50: 0.00000011 µg/mL
  TGI: 0.00096 ng/mL
A498
  TGI: > 0.001 ng/mL
A498; minipanel comparison, column C (key not visible; values match A498)
  GI50, minipanel cell line C: 0.00023 ng/mL
Human tumor cell lines
  GI50: less than 10^-7 μg/ml

## L-Dolavalyl-L-Valyl-N-Methyl-(S,S,R)-Dolaisoleucyl-(S,R,R)-Dolaproyl-L-Phenylalanineamide-N-(2-thiazole) [Compound 9a]
KM20L2
  GI-50: 0.0000020 µg/mL
  TGI: 0.011 ng/mL
SK-MEL-5
  GI-50: 0.0000014 µg/mL
  TGI: 0.08 ng/mL
OVCAR-3
  GI-50: 0.0000005 µg/mL
  LC-50: 0.000088 µg/mL
  TGI: 0.0044 ng/mL
NCI-H460
  GI-50: 0.0000018 µg/mL
  TGI: 0.009 ng/mL
SF-295
  GI-50: 0.0000038 µg/mL
  TGI: > 0.1 ng/mL
A498
  GI-50: 0.0000056 µg/mL
  TGI: 0.09 ng/mL

## L-Dolavalyl-L-Valyl-N-Methyl-(S,S,R)-Dolaisoleucyl-(S,R,R)-Dolaproyl-L-Phenylalanineamide-N-(3-quinoline) [Compound 9g]
KM20L2
  LC-50: > 0.000001 µg/mL
  TGI: 0.00023 ng/mL
  GI50, minipanel cell line E: 3.9e-05 ng/mL
SK-MEL-5
  LC-50: > 0.000001 µg/mL
  TGI: > 0.001 ng/mL
SK-MEL-5; minipanel comparison, column F (key not visible; values match SK-MEL-5)
  GI50, minipanel cell line F: 3e-06 ng/mL
OVCAR-3
  LC-50: > 0.000001 µg/mL
  TGI: 7.9e-05 ng/mL
OVCAR-3; minipanel comparison, column A (key not visible; values match OVCAR-3)
  GI50, minipanel cell line A: 4.6e-07 ng/mL
NCI-H460
  LC-50: > 0.000001 µg/mL
  TGI: 0.00012 ng/mL
NCI-H460; minipanel comparison, column D (key not visible; values match NCI-H460)
  GI50, minipanel cell line D: 1.3e-05 ng/mL
SF-295
  LC-50: > 0.000001 µg/mL
  TGI: 0.00061 ng/mL
SF-295; minipanel comparison, column B (key not visible; values match SF-295)
  GI50, minipanel cell line B: 4e-05 ng/mL
A498
  GI-50: 0.000000100 µg/mL
  LC-50: > 0.000001 µg/mL
  TGI: > 0.001 ng/mL
Human tumor cell lines
  GI50: less than 10^-7 μg/ml

## L-Dolavalyl-L-Valyl-N-Methyl-(S,S,R)-Dolaisoleucyl-(S,R,R)-Dolaproyl-L-Phenylalanineamide-N-(methenyl-2-pyridine) [Compound 9i]
KM20L2
  GI-50: 0.00033 µg/mL
  LC-50: > 0.01 µg/mL
  TGI: > 10 ng/mL
SK-MEL-5
  GI-50: 0.000029 µg/mL
  LC-50: > 0.01 µg/mL
  TGI: > 10 ng/mL
OVCAR-3
  GI-50: 0.000056 µg/mL
  LC-50: > 0.01 µg/mL
  TGI: 2 ng/mL
NCI-H460
  GI-50: 0.000051 µg/mL
  LC-50: > 0.01 µg/mL
  TGI: 1 ng/mL
SF-295
  GI-50: 0.00036 µg/mL
  LC-50: > 0.01 µg/mL
  TGI: > 10 ng/mL
A498
  GI-50: 0.00059 µg/mL
  LC-50: > 0.01 µg/mL
  TGI: > 10 ng/mL

## L-Dolavalyl-L-Valyl-N-Methyl-(S,S,R)-Dolaisoleucyl-(S,R,R)-Dolaproyl-L-Phenylalanineamide-N-(methenyl-2-thiophene) [Compound 9h]
KM20L2
  GI-50: 0.000049 µg/mL
  LC-50: > 0.01 µg/mL
  TGI: 1.3 ng/mL
SK-MEL-5
  GI-50: < 0.000001 µg/mL
  LC-50: > 0.01 µg/mL
  TGI: > 10 ng/mL
OVCAR-3
  GI-50: < 0.000001 µg/mL
  LC-50: 0.0097 µg/mL
  TGI: 0.28 ng/mL
NCI-H460
  GI-50: 0.0000089 µg/mL
  LC-50: > 0.01 µg/mL
  TGI: 0.37 ng/mL
SF-295
  GI-50: 0.00014 µg/mL
  LC-50: > 0.01 µg/mL
  TGI: > 10 ng/mL
A498
  GI-50: 0.000055 µg/mL
  LC-50: > 0.01 µg/mL
  TGI: 6.9 ng/mL

## L-Dolavalyl-L-Valyl-N-Methyl-(S,S,R)-Dolaisoleucyl-(S,R,R)-Dolaproyl-L-Phenylalanineamide-N-[2-(1,3,4-thiadiazole)] [Compound 9d]
KM20L2
  GI-50: 0.0000099 µg/mL
  LC-50: 0.00069 µg/mL
  TGI: 0.015 ng/mL
SK-MEL-5
  GI-50: 0.0000082 µg/mL
  LC-50: 0.00043 µg/mL
  TGI: 0.007 ng/mL
OVCAR-3
  GI-50: 0.0000031 µg/mL
  LC-50: > 0.0001 µg/mL
  TGI: 0.16 ng/mL
NCI-H460
  GI-50: 0.0000036 µg/mL
  LC-50: > 0.0001 µg/mL
  TGI: 0.061 ng/mL
SF-295
  GI-50: 0.000024 µg/mL
  LC-50: > 0.0001 µg/mL
  TGI: > 0.1 ng/mL
A498
  GI-50: 0.000039 µg/mL
  LC-50: > 0.0001 µg/mL
  TGI: > 0.1 ng/mL

## L-Dolavalyl-L-Valyl-N-Methyl-(S,S,R)-Dolaisoleucyl-(S,R,R)-Dolaproyl-L-Phenylalanineamide-N-[2-(4-methylthiazole)] [Compound 9b]
KM20L2
  GI-50: 0.0000034 µg/mL
  LC-50: > 0.0001 µg/mL
  TGI: 0.017 ng/mL
SK-MEL-5
  GI-50: 0.00000081 µg/mL
  LC-50: > 0.0001 µg/mL
  TGI: > 0.1 ng/mL
OVCAR-3
  GI-50: 0.00000020 µg/mL
  TGI: 0.012 ng/mL
NCI-H460
  GI-50: 0.00000046 µg/mL
  LC-50: > 0.0001 µg/mL
  TGI: 0.013 ng/mL
SF-295
  GI-50: 0.0000026 µg/mL
  LC-50: > 0.0001 µg/mL
  TGI: > 0.1 ng/mL
A498
  GI-50: 0.0000053 µg/mL
  LC-50: > 0.0001 µg/mL
  TGI: > 0.1 ng/mL

## L-Dolavalyl-L-Valyl-N-Methyl-(S,S,R)-Dolaisoleucyl-(S,R,R)-Dolaproyl-L-Phenylalanineamide-N-[2-(4-phenylthiazole)] [Compound 9c]
KM20L2
  GI-50: 0.0002 µg/mL
  LC-50: > 0.001 µg/mL
  TGI: 0.75 ng/mL
SK-MEL-5
  GI-50: 0.000043 µg/mL
  LC-50: > 0.001 µg/mL
  TGI: 0.33 ng/mL
OVCAR-3
  GI-50: 0.000020 µg/mL
  LC-50: > 0.001 µg/mL
  TGI: 0.13 ng/mL
NCI-H460
  GI-50: 0.000056 µg/mL
  LC-50: > 0.001 µg/mL
  TGI: 0.51 ng/mL
SF-295
  GI-50: 0.000065 µg/mL
  LC-50: > 0.001 µg/mL
  TGI: > 1 ng/mL
A498
  GI-50: 0.000057 µg/mL
  LC-50: > 0.001 µg/mL
  TGI: 0.72 ng/mL

## L-Dolavalyl-L-Valyl-N-Methyl-(S,S,R)-Dolaisoleucyl-(S,R,R)-Dolaproyl-L-Phenylalanineamide-N-[2-(6-methoxybenzo-thiazole)] [Compound 9f]
KM20L2
  GI-50: 0.00036 µg/mL
  LC-50: > 0.01 µg/mL
  TGI: 2.2 ng/mL
SK-MEL-5
  GI-50: 0.000090 µg/mL
  LC-50: > 0.01 µg/mL
  TGI: > 10 ng/mL
OVCAR-3
  GI-50: 0.00032 µg/mL
  LC-50: > 0.01 µg/mL
  TGI: 1.1 ng/mL
NCI-H460
  GI-50: 0.00033 µg/mL
  LC-50: > 0.01 µg/mL
  TGI: 1.6 ng/mL
SF-295
  GI-50: 0.00055 µg/mL
  LC-50: > 0.01 µg/mL
  TGI: > 10 ng/mL
A498
  GI-50: 0.00037 µg/mL
  LC-50: > 0.01 µg/mL
  TGI: > 10 ng/mL
